Test results from patent US20260232666A1, “COMPOSITIONS AND METHODS FOR INHIBITION OF RAS” (TheRas, Inc., priority 2023, published 2026).

Key:
[1] = tested on: pERK in NCI-H358 cells; assay: Cell-based pERK HTRF assay (pERK inhibition in H358 cells); conditions: 30 min incubation
Summary of the method: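 NCI-H358 cells were seeded at 4×10^4 cells/well in RPMI/10% FBS, then treated next day for 30 min at 0.25% DMSO (9-point, 3-fold series from 75 μM). Lysates were read by HTRF (d2/Eu cryptate antibody pair, 615 nm emission) after 4–24 h at room temperature to give pERK IC50.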

[2] = target: T1, GppNHp-loaded KRAS4b (amino acids 1-169) G12C/C118S protein (Homo sapiens, UniProt P01116, C118S/G12C); assay: Covalent cysteine 12 modification by MALDI-TOF MS, GppNHp-loaded KRAS G12C; format: binding; conditions: 15 minutes reaction time point
T1 construct: KRAS4b (amino acids 1-169) G12C/C118S protein; made in house
Summary of the method: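 1 μM protein + cpd (1:2.5), HEPES 20 mM/NaCl 150 mM/MgCl2 1 mM pH 7.3, RT, dark, 15 min. Linear MALDI-TOF, sinapinic acid matrix. % mod = modified/(modified + unmodified) peak height.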

| SMILES | IC50 ([1]; Homo sapiens, NCI-H358, 0.5 h) [µM] | GppNHp-KRAS G12C percent of modification [2] | IC50 [1] [µM] |
| --- | --- | --- | --- |
| C=CC(=O)N1C2CCC1CN(c1nc(OC[C@@]34CCCN3C[C@H](F)C4)nc3c(F)c(-c4ccc(F)c5sc(N)c(C#N)c45)c(C(F)(F)F)cc13)C2 [Compound 34] | < 0.1 | C (10%≤percent of modification <50%) |  |
| C=CC(=O)N1CC[C@@H](N(C)c2nc(OC[C@H]3C[C@@H](OC)CN3C)nc3c(F)c(-c4ccc(F)c5sc(N)c(C#N)c45)c(C(F)(F)F)cc23)[C@H]1C (single isomer, unassigned) [Compound 173] | < 0.1 | A (percent of modification ≥70%) |  |
| C=CC(=O)N1CC[C@@H](N(C)c2nc(OC[C@@]34CCCN3C[C@H](OC)C4)nc3c(F)c(-c4ccc(F)c5sc(N)c(C#N)c45)c(C(F)(F)F)cc23)[C@H]1C [Compound 151] | < 0.1 | A (percent of modification ≥70%) |  |
| C=CC(=O)N1CC[C@@H](N(C)c2nc(OC[C@@]34CCCN3C[C@H](F)C4)nc3cc(-c4ccc(F)c5sc(N)c(C#N)c45)c(C#N)cc23)[C@@H]1C [Compound 27] | < 0.1 | A (percent of modification ≥70%) |  |
| C=CC(=O)N1CC[C@@H](N(C)c2nc(OC[C@@H]3C[C@@H](OC)CN3C)nc3c(F)c(-c4ccc(F)c5sc(N)c(C#N)c45)c(C(F)(F)F)cc23)[C@H]1C (single isomer, unassigned) [Compound 172] | < 0.1 | A (percent of modification ≥70%) |  |
| C=CC(=O)N1CC[C@@H](N(CC)c2nc(OC[C@]34CCCN3C[C@H](OC)C4)nc3c(F)c(-c4ccc(F)c5sc(N)c(C#N)c45)ccc23)[C@H]1C [Compound 169] | 0.1 to 1 | A (percent of modification ≥70%) |  |
| C=CC(=O)N1CC[C@@H](N(CC)c2nc(OC[C@@]34CCCN3C[C@H](F)C4)nc3c(F)c(-c4ccc(F)c5sc(N)c(C#N)c45)c(Cl)cc23)[C@H]1CC [Compound 20] | < 0.1 | C (10%≤percent of modification <50%) |  |
| C=CC(=O)N1CCN(c2nc(OC[C@@]34CCCN3C[C@H](F)C4)nc3c(F)c(-c4ccc(F)c5sc(N)c(C#N)c45)c(C(F)(F)F)cc23)C2CC21 (stereo partly drawn) [Compound 106] | < 0.1 | A (percent of modification ≥70%) |  |
| C=CC(=O)N1CC[C@@H](N(C)c2nc(OC[C@@]34CCCN3C[C@H](F)C4)nc3c(F)c(-c4ccc(F)c5sc(N)c(C#N)c45)ccc23)[C@@H]1CC [Compound 23] | < 0.1 | C (10%≤percent of modification <50%) |  |
| C=CC(=O)N1C[C@@H](C)N(c2nc(OC[C@@]34CCCN3C[C@H](F)C4)nc3c(F)c(-c4ccc(F)c5sc(N)c(C#N)c45)c(C(F)(F)F)cc23)C[C@@H]1C [Compound 124] | < 0.1 | C (10%≤percent of modification <50%) |  |
| C=CC(=O)N1CC[C@@H](N(CC)c2nc(OC[C@@]34CCCN3C[C@H](OC)C4)nc3c(F)c(-c4ccc(F)c5sc(N)c(C#N)c45)c(C(F)(F)F)cc23)[C@H]1C [Compound 150] | < 0.1 | A (percent of modification ≥70%) |  |
| C=CC(=O)N1CC[C@@H](N(C)c2nc(OC[C@@H]3CC4(CC4)CN3C)nc3c(F)c(-c4ccc(F)c5sc(N)c(C#N)c45)c(C(F)(F)F)cc23)[C@@H]1C [Compound 112] |  | D (percent of modification <10%) | 0.1 to 1 |
| C=CC(=O)N1CCC(N(CC)c2nc(OC[C@@]34CCCN3C[C@H](F)C4)nc3c(F)c(-c4ccc(F)c5sc(N)c(C#N)c45)c(Cl)cc23)[C@H]1CC (stereo partly drawn) [Compound 12] | < 0.1 | C (10%≤percent of modification <50%) |  |
| C=CC(=O)N1CC[C@@H](N(CC)c2nc(OC[C@@H]3CCCN3C)nc3c(F)c(-c4ccc(F)c5sc(N)c(C#N)c45)ccc23)[C@H]1C [Compound 141] | < 0.1 | A (percent of modification ≥70%) |  |
| C=CC(=O)N1CC[C@@H](N(C)c2nc(OC[C@@H]3CCCN3C)nc3c(F)c(-c4ccc(F)c5sc(N)c(C#N)c45)c(Cl)cc23)[C@H]1C (atropisomer, axis not shown) [Compound 119] |  | D (percent of modification <10%) | > 1 |
| C=CC(=O)N1CC[C@@H](N(CC)c2nc(OC[C@@H]3CCCN3C)nc3c(F)c(-c4nc(N)cc(C)c4C(F)(F)F)c(C(F)(F)F)cc23)[C@H]1C [Compound 155] | < 0.1 | C (10%≤percent of modification <50%) |  |
| C=CC(=O)N1CC[C@@H](N(CC)c2nc(OC[C@@H]3C[C@@H](F)CN3C)nc3c(F)c(-c4ccc(F)c5sc(N)c(C#N)c45)c(C(F)(F)F)cc23)[C@H]1C (atropisomer, axis not shown) [Compound 113] |  | A (percent of modification ≥70%) | < 0.1 |
| C=CC(=O)N1CC[C@@H](N(C)c2nc(OC[C@@H]3C[C@@H](F)CN3CC)nc3c(F)c(-c4ccc(F)c5sc(N)c(C#N)c45)c(C(F)(F)F)cc23)[C@H]1C [Compound 107] | < 0.1 | A (percent of modification ≥70%) |  |
| C=CC(=O)N1CCC(N(CC)c2nc(OC[C@@]34CCCN3C[C@H](F)C4)nc3cc(-c4ccc(F)c5sc(N)c(C#N)c45)c(C#N)cc23)[C@H]1CC (stereo partly drawn) [Compound 14] | 0.1 to 1 | A (percent of modification ≥70%) |  |
| C=CC(=O)N1C[C@H](C)N(c2nc(OC[C@@]34CCCN3C[C@H](F)C4)nc3c(F)c(-c4ccc(F)c5sc(N)c(C#N)c45)c(Cl)cc23)C[C@H]1C (atropisomer, axis not shown) [Compound 103] |  | D (percent of modification <10%) | 0.1 to 1 |
| C=CC(=O)N1C[C@H](N(C)c2nc(OC[C@@]34CCCN3C[C@H](F)C4)nc3c(F)c(-c4ccc(F)c5sc(N)c(C#N)c45)c(C(F)(F)F)cc23)C[C@@H]1C [Compound 108] | < 0.1 | A (percent of modification ≥70%) |  |
| C=CC(=O)N1CC[C@@H](N(CC)c2nc(OC[C@@H]3CC4(CC4)CN3C)nc3c(F)c(-c4ccc(F)c5sc(N)c(C#N)c45)c(Cl)cc23)[C@H]1C (atropisomer, axis not shown) [Compound 121] |  | D (percent of modification <10%) | > 1 |
| C=CC(=O)N1CCC(N(C)c2nc(OC[C@@]34CCCN3C[C@H](F)C4)nc3c(F)c(-c4nc(N)cc(C)c4C(F)(F)F)c(Cl)cc23)[C@H]1C (stereo partly drawn) [Compound 10] | < 0.1 | B (50≤percent of modification <70%) |  |

Continued, values first:

| IC50 ([1]; Homo sapiens, NCI-H358, 0.5 h) [µM] | GppNHp-KRAS G12C percent of modification [2] | IC50 [1] [µM] | SMILES |
| --- | --- | --- | --- |
| < 0.1 | C (10%≤percent of modification <50%) |  | C=CC(=O)N1CC[C@@H](N(C)c2nc(OC[C@@H]3C[C@@H](F)CN3CC)nc3c(F)c(-c4ccc(F)c5sc(N)c(C#N)c45)c(C(F)(F)F)cc23)[C@@H]1C [Compound 144] |
| < 0.1 | A (percent of modification ≥70%) |  | C=CC(=O)N1C[C@H](C)N(c2nc(OC[C@@]34CCCN3C[C@H](F)C4)nc3c(F)c(-c4ccc(F)c5sc(N)c(C#N)c45)c(Cl)cc23)C[C@H]1C (atropisomer, axis not shown) [Compound 102] |
| < 0.1 | A (percent of modification ≥70%) |  | C=CC(=O)N1CC[C@@H](N(CC)c2nc(OC[C@]34CCCN3C[C@H](F)C4)nc3c(F)c(-c4ccc(F)c5sc(N)c(C#N)c45)c(C(F)(F)F)cc23)[C@H]1C [Compound 159] |
| < 0.1 | A (percent of modification ≥70%) |  | C=CC(=O)N1CC[C@@H](N(C)c2nc(OC[C@]34CCCN3C[C@H](OC)C4)nc3c(F)c(-c4ccc(F)c5sc(N)c(C#N)c45)c(C(F)(F)F)cc23)[C@H]1C [Compound 156] |
| < 0.1 | A (percent of modification ≥70%) |  | C=CC(=O)N1C[C@H](N(C)c2nc(OC[C@@H]3CCCN3C)nc3c(F)c(-c4ccc(F)c5sc(N)c(C#N)c45)c(C(F)(F)F)cc23)C[C@H]1C [Compound 147] |
| < 0.1 | A (percent of modification ≥70%) |  | C=CC(=O)N1CC[C@@H](N(CC)c2nc(OC[C@]34CCCN3C[C@H](OC)C4)nc3c(F)c(-c4ccc(F)c5sc(N)c(C#N)c45)c(C(F)(F)F)cc23)[C@H]1C [Compound 158] |
| < 0.1 | A (percent of modification ≥70%) |  | C=CC(=O)N1CC[C@@H](N(CC)c2nc(OC[C@@H]3C[C@@H](F)CN3C)nc3c(F)c(-c4ccc(F)c5sc(N)c(C#N)c45)ccc23)[C@H]1C [Compound 142] |
| < 0.1 | A (percent of modification ≥70%) |  | C=CC(=O)N1CC[C@@H](N(C)c2nc(OC[C@@H]3CC4(CC4)CN3C)nc3c(F)c(-c4ccc(F)c5sc(N)c(C#N)c45)c(C(F)(F)F)cc23)[C@@H]1C (atropisomer, axis not shown) [Compound 111] |
| < 0.1 | A (percent of modification ≥70%) |  | C=CC(=O)N1CC[C@@H](N(CC)c2nc(OC[C@]34CCCN3C[C@H](F)C4)nc3c(F)c(-c4ccc(F)c5sc(N)c(C#N)c45)c(Cl)cc23)[C@H]1C [Compound 165] |
| < 0.1 | A (percent of modification ≥70%) |  | C=CC(=O)N1CC[C@@H](N(C)c2nc(OC[C@]34CCCN3C[C@H](OC)C4)nc3c(F)c(-c4ccc(F)c5sc(N)c(C#N)c45)c(Cl)cc23)[C@H]1C [Compound 161] |
